# Laboratory results reported in PMC4921870, “The insect repellent N,N-diethyl-m-toluamide (DEET) induces angiogenesis via allosteric modulation of the M3 muscarinic receptor in endothelial cells” (Scientific Reports, 2016).
# Target: T1, M3 muscarinic receptor (Homo sapiens, UniProt P20309)
# T1 construct: gene CHRM3; recombinant M3 receptor expressed in HEK-293 cells (HEK-293/M3)
# Test: leftward shift of carbachol Ca2+ response in HEK-293/M3 cells (fluo-4); [3H]-4-DAMP not displaced
# Format: cell-based
# T1 sequence (P20309 whole entry): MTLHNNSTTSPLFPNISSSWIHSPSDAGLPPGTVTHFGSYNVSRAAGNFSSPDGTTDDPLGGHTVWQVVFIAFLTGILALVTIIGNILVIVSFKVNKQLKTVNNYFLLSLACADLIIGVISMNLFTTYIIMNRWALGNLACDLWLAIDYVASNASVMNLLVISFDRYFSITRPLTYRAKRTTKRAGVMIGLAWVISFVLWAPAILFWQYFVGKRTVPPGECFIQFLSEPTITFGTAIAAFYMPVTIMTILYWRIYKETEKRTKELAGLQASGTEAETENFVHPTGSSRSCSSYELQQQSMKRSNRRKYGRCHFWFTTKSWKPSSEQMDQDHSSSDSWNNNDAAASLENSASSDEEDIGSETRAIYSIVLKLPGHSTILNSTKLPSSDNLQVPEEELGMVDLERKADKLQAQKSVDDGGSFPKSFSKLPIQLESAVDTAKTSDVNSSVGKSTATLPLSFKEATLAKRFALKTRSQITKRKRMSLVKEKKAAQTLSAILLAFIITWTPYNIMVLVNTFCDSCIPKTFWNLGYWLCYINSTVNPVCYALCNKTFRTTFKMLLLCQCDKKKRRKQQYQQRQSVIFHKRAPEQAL
smiles,measurement,value
"CCN(CC)C(=O)c1cccc(C)c1 [DEET, N,N-diethyl-meta-toluamide]",leftward shift of carbachol Ca2+ response in HEK-293/M3 cells (fluo-4); [3H]-4-D,"Whatever the concentration of DEET used, it was able to induce a leftward shift of the calcium response induced by carbachol"
